Laboratory results reported in ChEMBL document CHEMBL6153138, “Discovery of Novel Aromatic Urea-Imidazole Salt Derivatives for Cancer Therapy via Targeting ERK1/2” (J Med Chem, 2025).

The compounds below were run on 4T1 (assay: Antiproliferative activity against mouse 4T1 cells incubated for 48 hrs by CCK-8 method). Settings: 4T1, 48 h.
Assay type: functional, cell-based

Compound	IC50 [nM]
O=C(Nc1cc(C(F)(F)F)cc(C(F)(F)F)c1)N[C@@H](Cc1ccccc1)Cn1c[n+](Cc2cccc(Br)c2)c2ccccc21	2310
O=C(Nc1cc(C(F)(F)F)cc(C(F)(F)F)c1)N[C@@H](Cc1ccccc1)Cn1c[n+](Cc2cccc(Cl)c2)c2ccccc21	3680
O=C(Nc1cc(C(F)(F)F)cc(C(F)(F)F)c1)N[C@@H](Cc1ccccc1)Cn1c[n+](Cc2ccccc2Br)c2ccccc21	3510
O=C(Nc1cc(C(F)(F)F)cc(C(F)(F)F)c1)N[C@@H](Cc1ccccc1)Cn1c[n+](Cc2ccc(Cl)cc2Cl)c2ccccc21	4630
O=C(Nc1cc(C(F)(F)F)cc(C(F)(F)F)c1)N[C@@H](Cc1ccccc1)Cn1c[n+](Cc2ccc(Cl)cc2)c2ccccc21	4590
O=C(Nc1cc(C(F)(F)F)cc(C(F)(F)F)c1)N[C@@H](Cc1ccccc1)Cn1c[n+](Cc2ccccc2Cl)c2ccccc21	3880
O=C(Nc1cc(C(F)(F)F)cc(C(F)(F)F)c1)N[C@@H](Cc1ccccc1)Cn1c[n+](Cc2ccc3cccnc3c2)c2ccccc21	5290
Cc1ccccc1C[n+]1cn(C[C@H](Cc2ccccc2)NC(=O)Nc2cc(C(F)(F)F)cc(C(F)(F)F)c2)c2ccccc21	4830
O=C(Nc1cc(C(F)(F)F)cc(C(F)(F)F)c1)N[C@@H](Cc1ccccc1)Cn1c[n+](Cc2ccc(Br)cc2)c2ccccc21	6770
O=C(Nc1cc(C(F)(F)F)cc(C(F)(F)F)c1)N[C@@H](Cc1ccccc1)Cn1c[n+](Cc2ccccc2C(F)(F)F)c2ccccc21	4970
Cc1ccc(NC(=O)N[C@@H](Cc2ccccc2)Cn2c[n+](Cc3ccc4ccccc4c3)c3ccccc32)cc1	6620
O=C(Nc1cc(C(F)(F)F)cc(C(F)(F)F)c1)N[C@@H](Cc1ccccc1)Cn1c[n+](Cc2cccc(OCc3ccccc3)c2)c2ccccc21	6890
O=C(Nc1cc(C(F)(F)F)cc(C(F)(F)F)c1)N[C@@H](Cc1ccccc1)Cn1c[n+](Cc2ccccc2F)c2ccccc21	3130
O=C(Nc1ccc(Cl)c(Cl)c1)N[C@@H](Cc1ccccc1)Cn1c[n+](Cc2ccc3ccccc3c2)c2ccccc21	6770

What follows are compounds tested on MCF7 (assay: Antiproliferative activity against human MCF7 cells incubated for 48 hrs by CCK-8 method). Settings: MCF7, 48 h.
Assay type: functional, cell-based

Compound	IC50 [nM]
O=C(Nc1cc(C(F)(F)F)cc(C(F)(F)F)c1)N[C@@H](Cc1ccccc1)Cn1c[n+](Cc2cccc(Br)c2)c2ccccc21	1800
O=C(Nc1cc(C(F)(F)F)cc(C(F)(F)F)c1)N[C@@H](Cc1ccccc1)Cn1c[n+](Cc2cccc(Cl)c2)c2ccccc21	2340
O=C(Nc1cc(C(F)(F)F)cc(C(F)(F)F)c1)N[C@@H](Cc1ccccc1)Cn1c[n+](Cc2ccccc2Br)c2ccccc21	1940
O=C(Nc1cc(C(F)(F)F)cc(C(F)(F)F)c1)N[C@@H](Cc1ccccc1)Cn1c[n+](Cc2ccc(Cl)cc2Cl)c2ccccc21	1700
O=C(Nc1cc(C(F)(F)F)cc(C(F)(F)F)c1)N[C@@H](Cc1ccccc1)Cn1c[n+](Cc2ccc(Cl)cc2)c2ccccc21	1910
O=C(Nc1cc(C(F)(F)F)cc(C(F)(F)F)c1)N[C@@H](Cc1ccccc1)Cn1c[n+](Cc2ccccc2Cl)c2ccccc21	1990
O=C(Nc1cc(C(F)(F)F)cc(C(F)(F)F)c1)N[C@@H](Cc1ccccc1)Cn1c[n+](Cc2ccc3cccnc3c2)c2ccccc21	1790
Cc1ccccc1C[n+]1cn(C[C@H](Cc2ccccc2)NC(=O)Nc2cc(C(F)(F)F)cc(C(F)(F)F)c2)c2ccccc21	2770
O=C(Nc1cc(C(F)(F)F)cc(C(F)(F)F)c1)N[C@@H](Cc1ccccc1)Cn1c[n+](Cc2ccc(Br)cc2)c2ccccc21	2190
O=C(Nc1cc(C(F)(F)F)cc(C(F)(F)F)c1)N[C@@H](Cc1ccccc1)Cn1c[n+](Cc2ccccc2C(F)(F)F)c2ccccc21	1720
Cc1ccc(NC(=O)N[C@@H](Cc2ccccc2)Cn2c[n+](Cc3ccc4ccccc4c3)c3ccccc32)cc1	2520
O=C(Nc1cc(C(F)(F)F)cc(C(F)(F)F)c1)N[C@@H](Cc1ccccc1)Cn1c[n+](Cc2cccc(OCc3ccccc3)c2)c2ccccc21	3200
O=C(Nc1cc(C(F)(F)F)cc(C(F)(F)F)c1)N[C@@H](Cc1ccccc1)Cn1c[n+](Cc2ccccc2F)c2ccccc21	2090
O=C(Nc1ccc(Cl)c(Cl)c1)N[C@@H](Cc1ccccc1)Cn1c[n+](Cc2ccc3ccccc3c2)c2ccccc21	1550

Each compound was assayed on HCC1937 (assay: Antiproliferative activity against human HCC1937 cells incubated for 48 hrs by CCK-8 method). Settings: HCC1937, 48 h.
Assay type: functional, cell-based

Compound	IC50 [nM]
O=C(Nc1cc(C(F)(F)F)cc(C(F)(F)F)c1)N[C@@H](Cc1ccccc1)Cn1c[n+](Cc2cccc(Br)c2)c2ccccc21	1690
O=C(Nc1cc(C(F)(F)F)cc(C(F)(F)F)c1)N[C@@H](Cc1ccccc1)Cn1c[n+](Cc2cccc(Cl)c2)c2ccccc21	3400
O=C(Nc1cc(C(F)(F)F)cc(C(F)(F)F)c1)N[C@@H](Cc1ccccc1)Cn1c[n+](Cc2ccccc2Br)c2ccccc21	3000
O=C(Nc1cc(C(F)(F)F)cc(C(F)(F)F)c1)N[C@@H](Cc1ccccc1)Cn1c[n+](Cc2ccc(Cl)cc2Cl)c2ccccc21	1540
O=C(Nc1cc(C(F)(F)F)cc(C(F)(F)F)c1)N[C@@H](Cc1ccccc1)Cn1c[n+](Cc2ccc(Cl)cc2)c2ccccc21	4530
O=C(Nc1cc(C(F)(F)F)cc(C(F)(F)F)c1)N[C@@H](Cc1ccccc1)Cn1c[n+](Cc2ccccc2Cl)c2ccccc21	1870
O=C(Nc1cc(C(F)(F)F)cc(C(F)(F)F)c1)N[C@@H](Cc1ccccc1)Cn1c[n+](Cc2ccc3cccnc3c2)c2ccccc21	1130
Cc1ccccc1C[n+]1cn(C[C@H](Cc2ccccc2)NC(=O)Nc2cc(C(F)(F)F)cc(C(F)(F)F)c2)c2ccccc21	2750
O=C(Nc1cc(C(F)(F)F)cc(C(F)(F)F)c1)N[C@@H](Cc1ccccc1)Cn1c[n+](Cc2ccc(Br)cc2)c2ccccc21	1820
O=C(Nc1cc(C(F)(F)F)cc(C(F)(F)F)c1)N[C@@H](Cc1ccccc1)Cn1c[n+](Cc2ccccc2C(F)(F)F)c2ccccc21	2960
Cc1ccc(NC(=O)N[C@@H](Cc2ccccc2)Cn2c[n+](Cc3ccc4ccccc4c3)c3ccccc32)cc1	3620
O=C(Nc1cc(C(F)(F)F)cc(C(F)(F)F)c1)N[C@@H](Cc1ccccc1)Cn1c[n+](Cc2cccc(OCc3ccccc3)c2)c2ccccc21	3180
O=C(Nc1cc(C(F)(F)F)cc(C(F)(F)F)c1)N[C@@H](Cc1ccccc1)Cn1c[n+](Cc2ccccc2F)c2ccccc21	1770
O=C(Nc1ccc(Cl)c(Cl)c1)N[C@@H](Cc1ccccc1)Cn1c[n+](Cc2ccc3ccccc3c2)c2ccccc21	3370

Each compound was assayed on MCF-10A (assay: Antiproliferative activity against human MCF-10A cells incubated for 48 hrs by CCK-8 method). Settings: not given.
Assay type: functional, cell-based

Compound	IC50 [nM]
O=C(Nc1cc(C(F)(F)F)cc(C(F)(F)F)c1)N[C@@H](Cc1ccccc1)Cn1c[n+](Cc2cccc(Br)c2)c2ccccc21	8960
O=C(Nc1cc(C(F)(F)F)cc(C(F)(F)F)c1)N[C@@H](Cc1ccccc1)Cn1c[n+](Cc2cccc(Cl)c2)c2ccccc21	> 10000
O=C(Nc1cc(C(F)(F)F)cc(C(F)(F)F)c1)N[C@@H](Cc1ccccc1)Cn1c[n+](Cc2ccccc2Br)c2ccccc21	9250
O=C(Nc1cc(C(F)(F)F)cc(C(F)(F)F)c1)N[C@@H](Cc1ccccc1)Cn1c[n+](Cc2ccc(Cl)cc2Cl)c2ccccc21	> 10000
O=C(Nc1cc(C(F)(F)F)cc(C(F)(F)F)c1)N[C@@H](Cc1ccccc1)Cn1c[n+](Cc2ccc(Cl)cc2)c2ccccc21	9780
O=C(Nc1cc(C(F)(F)F)cc(C(F)(F)F)c1)N[C@@H](Cc1ccccc1)Cn1c[n+](Cc2ccccc2Cl)c2ccccc21	9180
O=C(Nc1cc(C(F)(F)F)cc(C(F)(F)F)c1)N[C@@H](Cc1ccccc1)Cn1c[n+](Cc2ccc3cccnc3c2)c2ccccc21	8220
Cc1ccccc1C[n+]1cn(C[C@H](Cc2ccccc2)NC(=O)Nc2cc(C(F)(F)F)cc(C(F)(F)F)c2)c2ccccc21	> 10000
O=C(Nc1cc(C(F)(F)F)cc(C(F)(F)F)c1)N[C@@H](Cc1ccccc1)Cn1c[n+](Cc2ccc(Br)cc2)c2ccccc21	> 10000
O=C(Nc1cc(C(F)(F)F)cc(C(F)(F)F)c1)N[C@@H](Cc1ccccc1)Cn1c[n+](Cc2ccccc2C(F)(F)F)c2ccccc21	7680
Cc1ccc(NC(=O)N[C@@H](Cc2ccccc2)Cn2c[n+](Cc3ccc4ccccc4c3)c3ccccc32)cc1	> 10000
O=C(Nc1cc(C(F)(F)F)cc(C(F)(F)F)c1)N[C@@H](Cc1ccccc1)Cn1c[n+](Cc2cccc(OCc3ccccc3)c2)c2ccccc21	> 10000
O=C(Nc1cc(C(F)(F)F)cc(C(F)(F)F)c1)N[C@@H](Cc1ccccc1)Cn1c[n+](Cc2ccccc2F)c2ccccc21	8380
O=C(Nc1ccc(Cl)c(Cl)c1)N[C@@H](Cc1ccccc1)Cn1c[n+](Cc2ccc3ccccc3c2)c2ccccc21	9720

The compounds below were run on MDA-MB-468 (assay: Antiproliferative activity against human MDA-MB-468 cells incubated for 48 hrs by CCK-8 method). Settings: MDA-MB-468, 48 h.
Assay type: functional, cell-based

Compound	IC50 [nM]
O=C(Nc1cc(C(F)(F)F)cc(C(F)(F)F)c1)N[C@@H](Cc1ccccc1)Cn1c[n+](Cc2cccc(Br)c2)c2ccccc21	1580
O=C(Nc1cc(C(F)(F)F)cc(C(F)(F)F)c1)N[C@@H](Cc1ccccc1)Cn1c[n+](Cc2cccc(Cl)c2)c2ccccc21	2120
O=C(Nc1cc(C(F)(F)F)cc(C(F)(F)F)c1)N[C@@H](Cc1ccccc1)Cn1c[n+](Cc2ccccc2Br)c2ccccc21	1620
O=C(Nc1cc(C(F)(F)F)cc(C(F)(F)F)c1)N[C@@H](Cc1ccccc1)Cn1c[n+](Cc2ccc(Cl)cc2Cl)c2ccccc21	2150
O=C(Nc1cc(C(F)(F)F)cc(C(F)(F)F)c1)N[C@@H](Cc1ccccc1)Cn1c[n+](Cc2ccc(Cl)cc2)c2ccccc21	1810
O=C(Nc1cc(C(F)(F)F)cc(C(F)(F)F)c1)N[C@@H](Cc1ccccc1)Cn1c[n+](Cc2ccccc2Cl)c2ccccc21	2060
O=C(Nc1cc(C(F)(F)F)cc(C(F)(F)F)c1)N[C@@H](Cc1ccccc1)Cn1c[n+](Cc2ccc3cccnc3c2)c2ccccc21	1810
Cc1ccccc1C[n+]1cn(C[C@H](Cc2ccccc2)NC(=O)Nc2cc(C(F)(F)F)cc(C(F)(F)F)c2)c2ccccc21	1910
O=C(Nc1cc(C(F)(F)F)cc(C(F)(F)F)c1)N[C@@H](Cc1ccccc1)Cn1c[n+](Cc2ccc(Br)cc2)c2ccccc21	2220
O=C(Nc1cc(C(F)(F)F)cc(C(F)(F)F)c1)N[C@@H](Cc1ccccc1)Cn1c[n+](Cc2ccccc2C(F)(F)F)c2ccccc21	1880
Cc1ccc(NC(=O)N[C@@H](Cc2ccccc2)Cn2c[n+](Cc3ccc4ccccc4c3)c3ccccc32)cc1	3690
O=C(Nc1cc(C(F)(F)F)cc(C(F)(F)F)c1)N[C@@H](Cc1ccccc1)Cn1c[n+](Cc2cccc(OCc3ccccc3)c2)c2ccccc21	1640
O=C(Nc1cc(C(F)(F)F)cc(C(F)(F)F)c1)N[C@@H](Cc1ccccc1)Cn1c[n+](Cc2ccccc2F)c2ccccc21	1820
O=C(Nc1ccc(Cl)c(Cl)c1)N[C@@H](Cc1ccccc1)Cn1c[n+](Cc2ccc3ccccc3c2)c2ccccc21	2450

Each compound was assayed against Mitogen-activated protein kinase 1 (Homo sapiens, UniProt P28482) (assay: Inhibition of ERK2 (unknown origin) incubated for 60 mins by luminescence based ADP-Glo kinase assay). Settings: not given.
Mitogen-activated protein kinase 1, sequence (P28482 whole entry): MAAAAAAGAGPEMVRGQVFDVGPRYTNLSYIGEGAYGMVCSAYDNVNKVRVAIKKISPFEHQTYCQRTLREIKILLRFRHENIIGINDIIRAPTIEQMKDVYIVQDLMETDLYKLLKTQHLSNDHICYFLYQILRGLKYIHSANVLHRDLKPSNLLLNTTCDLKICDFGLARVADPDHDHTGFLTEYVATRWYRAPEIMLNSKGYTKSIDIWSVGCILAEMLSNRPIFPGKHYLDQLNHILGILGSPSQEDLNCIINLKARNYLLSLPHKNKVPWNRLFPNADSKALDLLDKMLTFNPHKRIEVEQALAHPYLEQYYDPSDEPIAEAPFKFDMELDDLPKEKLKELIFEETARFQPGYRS

Compound	IC50 [nM]
O=C(Nc1cc(C(F)(F)F)cc(C(F)(F)F)c1)N[C@@H](Cc1ccccc1)Cn1c[n+](Cc2cccc(Br)c2)c2ccccc21	170
O=C(Nc1cc(C(F)(F)F)cc(C(F)(F)F)c1)N[C@@H](Cc1ccccc1)Cn1c[n+](Cc2cccc(Cl)c2)c2ccccc21	166
O=C(Nc1cc(C(F)(F)F)cc(C(F)(F)F)c1)N[C@@H](Cc1ccccc1)Cn1c[n+](Cc2ccccc2Br)c2ccccc21	236
O=C(Nc1cc(C(F)(F)F)cc(C(F)(F)F)c1)N[C@@H](Cc1ccccc1)Cn1c[n+](Cc2ccc(Cl)cc2Cl)c2ccccc21	198
O=C(Nc1cc(C(F)(F)F)cc(C(F)(F)F)c1)N[C@@H](Cc1ccccc1)Cn1c[n+](Cc2ccc(Cl)cc2)c2ccccc21	319
O=C(Nc1cc(C(F)(F)F)cc(C(F)(F)F)c1)N[C@@H](Cc1ccccc1)Cn1c[n+](Cc2ccccc2Cl)c2ccccc21	235
O=C(Nc1cc(C(F)(F)F)cc(C(F)(F)F)c1)N[C@@H](Cc1ccccc1)Cn1c[n+](Cc2ccc3cccnc3c2)c2ccccc21	370
Cc1ccccc1C[n+]1cn(C[C@H](Cc2ccccc2)NC(=O)Nc2cc(C(F)(F)F)cc(C(F)(F)F)c2)c2ccccc21	123
O=C(Nc1cc(C(F)(F)F)cc(C(F)(F)F)c1)N[C@@H](Cc1ccccc1)Cn1c[n+](Cc2ccc(Br)cc2)c2ccccc21	338
O=C(Nc1cc(C(F)(F)F)cc(C(F)(F)F)c1)N[C@@H](Cc1ccccc1)Cn1c[n+](Cc2ccccc2C(F)(F)F)c2ccccc21	252
Cc1ccc(NC(=O)N[C@@H](Cc2ccccc2)Cn2c[n+](Cc3ccc4ccccc4c3)c3ccccc32)cc1	399
O=C(Nc1cc(C(F)(F)F)cc(C(F)(F)F)c1)N[C@@H](Cc1ccccc1)Cn1c[n+](Cc2cccc(OCc3ccccc3)c2)c2ccccc21	280
O=C(Nc1cc(C(F)(F)F)cc(C(F)(F)F)c1)N[C@@H](Cc1ccccc1)Cn1c[n+](Cc2ccccc2F)c2ccccc21	217
O=C(Nc1ccc(Cl)c(Cl)c1)N[C@@H](Cc1ccccc1)Cn1c[n+](Cc2ccc3ccccc3c2)c2ccccc21	215
